Columns and labels:
[1] = system: E. coli; assay: Comparative experiment with traditional antibiotic in retention balloon or directly in urine
Procedure: An overnight culture was added to 25 ml of urine to a final density of 10^5 CFU/ml. The urine was placed in long-necked 50 ml flasks with a shape resembling the urinary bladder and the urethra. An all-silicone catheter (Argyle, Sherwood Medical, Tullamore, Ireland) was placed in the flask and the retention balloon was filled with 10 ml of saline containing ascorbic acid (10 mM) and sodium nitrite (5 mM). The pH of the solution was adjusted to 2.5 using hydrochloric acid (3 M). Ascorbic acid and nitrite were prepared and mixed immediately before administration. Ascorbic acid solution alone (pH 2.5) was used as control. After filling the retention balloons the catheter was gently pulled outwards and fixed at the neck whereby the flask opening was sealed off. Then the flasks were turned up side down and incubated at 37° C. for 24 h. At the end of the experiment the urine was serially diluted and further cultured on blood agar plates for determination of viable counts (cfu/ml). All experiments were made in quadruplicate.
In a separate flask ciprofloxacin was added directly to the urine.

[2] = system: E. coli isolated from a patient with urinary tract infection and E. coli ATCC 25992; assay: Viable counts of E. coli in urine surrounding the filled retention balloon; type: cell-based; settings: solution in retention balloon, start 10^5 cfu/ml, 37° C.
[3] = Kinetics of NO release from the retention balloon (headspace chemiluminescence); type: physicochemical; settings: balloon filled with ascorbic acid/nitrite solution; NO-free air flush 4.5 L/min
From the text: The kinetics of NO release from the retention balloon was monitored in separate experiments. The catheter was placed in the flask and after filling the retention balloon with the ascorbic acid/nitrite solution the flask was closed. Synthetic NO-free air was flushed via an inlet at a rate of 4.5 L/min and headspace NO was continuously measured from an outlet by a rapid-response chemiluminescence system (Aerocrine AB, Stockholm, Sweden).

## O=C(O)c1cn(C2CC2)c2cc(N3CCNCC3)c(F)cc2c1=O [ciprofloxacin]
[1]; antibiotic added directly to the urine
  antibacterial effect in urine: effectively killed the bacteria
[1]; antibiotic placed in the retention balloon
  antibacterial effect in the urine surrounding the balloon: no antibacterial effect

## O=C1O[C@H]([C@@H](O)CO)C(O)=C1O [ascorbic acid alone, ascorbic acid]
[2]
  bacterial counts after 24 h: 10^8 cfu/ml

## [N]=O [NO, nitric oxide]
[3]
  half-time of decrease of NO release rate from the balloons: about 30 min

— patent US20070239107A1, “Device and Method for Administering Therapeutic Agents” (priority 2003, published 2007)
